Measurements published in patent publication US20230147683A1, “TREATMENT” (UNION Therapeutics A/S, priority 2020, published 2023).

Assays:
[1] = human, in vivo
clinical = conditions: human, in vivo
in vitro [2] = conditions: human
SARS-CoV-2 = assay: Inhibition of SARS-CoV-2 replication in Caco-2 cells; assay type: cell-based; conditions: Severe acute respiratory syndrome coronavirus 2
SARS-CoV-2 D614 strain = assay: microbe, parasite or virus in culture; assay type: cell-based; conditions: Severe acute respiratory syndrome coronavirus 2; VeroE6 TMPRSS2 cells; read-out: EC50 against D614 strain
[3] = test system: SARS-CoV-2 B 1.351 strain; assay: microbe, parasite or virus in culture; assay type: cell-based; conditions: Severe acute respiratory syndrome coronavirus 2; VeroE6 TMPRSS2 cells; read-out: EC50 against B 1.351 strain
in vitro [4] = conditions: African green monkey
[5] = test system: SARS-CoV-2 B.1.1.7 strain; assay: microbe, parasite or virus in culture; assay type: cell-based; conditions: Severe acute respiratory syndrome coronavirus 2; VeroE6 TMPRSS2 cells; read-out: EC50 against B.1.1.7 strain
[6] = 2 g/day oral dose; IC90 against SARS-CoV-2
all targeted strains = assay: Minimum Inhibitory Concentration (MIC) assay, all strains; conditions: read-out: MIC against all targeted strains
[7] = asthmatic mice, niclosamide in corn oil, I.P. injection; cited from earlier work
TMEM16F = molecular target: T1, TMEM16F (Homo sapiens, UniProt Q4KMQ2); conditions: cited from earlier work
T1 sequence (Q4KMQ2 1-910): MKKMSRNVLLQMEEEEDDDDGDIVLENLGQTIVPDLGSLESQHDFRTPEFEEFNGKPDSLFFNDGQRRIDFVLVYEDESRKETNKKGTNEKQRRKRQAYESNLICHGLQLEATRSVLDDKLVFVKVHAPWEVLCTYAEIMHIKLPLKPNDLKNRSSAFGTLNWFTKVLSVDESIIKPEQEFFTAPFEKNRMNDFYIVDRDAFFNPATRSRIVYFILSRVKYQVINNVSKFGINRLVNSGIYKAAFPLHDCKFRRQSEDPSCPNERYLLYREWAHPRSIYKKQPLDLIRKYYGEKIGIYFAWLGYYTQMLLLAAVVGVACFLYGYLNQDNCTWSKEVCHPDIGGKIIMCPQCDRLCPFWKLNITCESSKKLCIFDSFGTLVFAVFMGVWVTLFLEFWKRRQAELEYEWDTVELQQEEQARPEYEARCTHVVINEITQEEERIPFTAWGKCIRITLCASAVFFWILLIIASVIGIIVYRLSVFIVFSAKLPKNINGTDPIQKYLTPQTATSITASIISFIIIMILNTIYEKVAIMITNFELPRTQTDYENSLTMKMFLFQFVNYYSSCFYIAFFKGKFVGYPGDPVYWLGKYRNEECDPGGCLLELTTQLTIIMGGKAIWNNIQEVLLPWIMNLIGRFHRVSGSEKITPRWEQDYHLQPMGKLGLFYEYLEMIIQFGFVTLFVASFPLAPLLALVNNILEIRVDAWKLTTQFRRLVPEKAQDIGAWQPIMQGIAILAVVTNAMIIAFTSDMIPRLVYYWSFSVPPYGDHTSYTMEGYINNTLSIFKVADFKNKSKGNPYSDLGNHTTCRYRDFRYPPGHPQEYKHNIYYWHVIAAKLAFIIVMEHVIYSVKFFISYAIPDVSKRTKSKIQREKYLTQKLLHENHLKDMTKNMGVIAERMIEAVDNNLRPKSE

TMEM16A = molecular target: T2, TMEM16A (Homo sapiens, UniProt Q5XXA6); conditions: cited from earlier work
T2 sequence (Q5XXA6 1-986): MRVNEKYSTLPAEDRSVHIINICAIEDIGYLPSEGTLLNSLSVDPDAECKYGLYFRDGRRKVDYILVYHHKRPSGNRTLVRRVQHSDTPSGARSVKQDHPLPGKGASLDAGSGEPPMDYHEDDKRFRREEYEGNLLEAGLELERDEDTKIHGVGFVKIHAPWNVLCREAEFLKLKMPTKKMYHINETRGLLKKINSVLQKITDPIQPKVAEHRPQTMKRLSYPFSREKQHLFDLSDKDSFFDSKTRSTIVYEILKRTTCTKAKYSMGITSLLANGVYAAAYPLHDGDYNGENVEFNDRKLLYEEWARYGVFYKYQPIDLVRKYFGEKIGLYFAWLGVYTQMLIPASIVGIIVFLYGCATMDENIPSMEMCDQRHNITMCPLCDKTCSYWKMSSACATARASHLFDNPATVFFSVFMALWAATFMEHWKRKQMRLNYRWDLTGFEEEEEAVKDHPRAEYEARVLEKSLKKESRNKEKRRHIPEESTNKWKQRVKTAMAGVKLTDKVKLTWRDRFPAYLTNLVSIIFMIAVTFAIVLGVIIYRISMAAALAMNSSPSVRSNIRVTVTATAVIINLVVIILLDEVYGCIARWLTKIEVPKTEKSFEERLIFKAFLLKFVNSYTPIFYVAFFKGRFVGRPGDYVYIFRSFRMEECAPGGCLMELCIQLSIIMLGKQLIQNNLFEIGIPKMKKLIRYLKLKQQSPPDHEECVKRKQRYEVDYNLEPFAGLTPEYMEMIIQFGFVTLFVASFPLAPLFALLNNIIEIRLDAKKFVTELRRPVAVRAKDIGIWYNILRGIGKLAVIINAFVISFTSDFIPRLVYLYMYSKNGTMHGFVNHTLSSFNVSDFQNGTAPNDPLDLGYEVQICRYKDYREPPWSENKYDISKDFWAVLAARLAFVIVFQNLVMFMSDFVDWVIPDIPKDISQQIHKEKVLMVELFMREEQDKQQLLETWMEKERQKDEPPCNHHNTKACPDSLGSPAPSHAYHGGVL

SARS-CoV = conditions: cited from earlier work

| SMILES | peak concentrations in blood (range) [1] [ng/mL] | AUC(0-t) (clinical) [ng·h/mL] | Cmax (clinical; maximum plasma concentration (Cmax), mean) [ng/mL] | CC50 (in vitro [2]) [nM] | EC50 (SARS-CoV-2) [nM] | EC50 (SARS-CoV-2 D614 strain) [nM] | EC50 [3] [nM] | CC50 (in vitro [4]) [nM] | EC50 [5] [nM] | efficacy margin, mean systemic exposure of human oral dose to IC90 [6] [fold] | MIC (all targeted strains) [µg/mL] | effect on mucus production and secretion and bronchoconstriction [7] | inhibition of TMEM16F (TMEM16F) | inhibition of TMEM16A (TMEM16A) | concentration at which viral antigen synthesis was totally abolished (SARS-CoV) [μm] | concentration suppressing cytopathic effect (CPE), as low as (SARS-CoV) [μm] |
| --- | --- | --- | --- | --- | --- | --- | --- | --- | --- | --- | --- | --- | --- | --- | --- | --- |
| O=C(Nc1ccc([N+](=O)[O-])cc1Cl)c1cc(Cl)ccc1O [niclosamide ethanolamine] | 29 to 506 | 509 | 239 | > 10000 | 80 | 130 | 70 | > 10000 | 80 | – | – | – | – | – | – | – |
| O=C(Nc1ccc([N+](=O)[O-])cc1Cl)c1cc(Cl)ccc1O [niclosamide, 5-chloro-N-(2-chloro-4-nitrophenyl)-2-hydroxybenzamide] | – | – | – | – | – | – | – | – | – | 8 | ≤ 0.5 | reduced mucus production and secretion, as well as bronchoconstriction | potent inhibitor | potent inhibitor | 1.56 | 1 |
